Measured values taken from patent publication US10722575B2, “Use of 1,3-diphenylprop-2-en-1-one derivatives for treating liver disorders” (GENFIT, priority 2009, dated 2020).
Marks after values point to notes of the source that are not given here.

What was measured:
[1] = test system: human primary hepatic stellate cells (hHSC); assay: TGFβ1-induced hHSC activation, gene expression by quantitative PCR; assay type: cell-based; details: TGFβ1 1 ng/ml, 24 hours; for Inhibition of the TGFβ1-induced hHSC activation: Col1α1 / Inhibition of the TGFβ1-induced hHSC activation: Col4α1 / Inhibition of the TGFβ1-induced hHSC activation: αSMA: 10 μM; for inhibition at 10 µM: Homo sapiens
Description: (§1) Compounds were dissolved in dimethyl sulfoxide (DMSO, Fluka cat #41640)
(§2) The human primary hepatic stellate cells (hHSC) (ScienCell) were cultured in STeCM medium (ScienCell cat #5301) that was supplemented with 2% fetal bovine serum (FBS, ScienCell cat #0010), 1% penicillin/streptomycine (ScienCell cat #0503) and stellate cell growth supplement (SteCGS; ScienCell cat #5352). Culture plastics were coated with Poly-L Lysine (Sigma cat # P4707).
The human primary hepatic stellate cells (hHSC) (ScienCell) were cultured under standard conditions, as described above. For experiments to determine gene expression patterns, hHSC were plated at a density of 7×10^4 cells/well into 24-well plates and were cultured overnight. Next day, culture medium was replaced by serum-free and SteCGS-free medium for an additional 16 hours. Cells were treated with a compound of General Formula (I) in addition to TGFβ1 (1 ng/ml) in a serum-free and SteCGS-free medium for 24 hours.
Total RNA was isolated using Nucleospin® 96 RNA kit (Macherey Nagel) following manufacturer's instructions. 100 ng of total RNA were reverse transcribed in cDNA using M-MLV RT (Moloney Murine Leukemia Virus Reverse Transcriptase) (Invitrogen cat #28025) in presence of RT buffer 1× (Invitrogen), 1 mM DTT (Invitrogen), 0.18 mM dNTPs (Promega), 200 ng pdN6 (Amersham) and 30U of RNase inhibitor (Promega).
Quantitative PCR was then carried out using the CFX96 TOUCH™ Real-Time PCR Detection System (Biorad). Briefly, PCR reactions were performed in 96 well plates on 5 μl of 5× diluted reverse transcription mix using the iQ SYBR Green Supermix kit. The experimental conditions were: 25 μl of volume reaction, 3 mM of MgCl2, and 0.5 μl each of reverse and forward primers (10 pMol).
Expression levels were normalized using the expression of 36B4 gene as reference (sequences SEQ ID NO: 1 and SEQ ID NO: 2 as shown above).
For each gene, the standard curves were drawn by selecting the best points (at least three points) in order to have PCR reaction efficiency close to 100% and a correlation coefficient close to 1. Expression levels were determined using the standard curve equation for both the housekeeping gene and the target gene (taking into account the specific PCR efficiency of each target gene).

[2] = test system: human primary hepatic stellate cells (hHSC); assay: PDGF-BB-induced hHSC proliferation, BrdU incorporation; assay type: cell-based; details: PDGF-BB 10 ng/ml; for Inhibition of the PDGF-BB-induced hHSC proliferation: BrdU Incorporation: 10 μM
Description: as §1, §2
hHSC were plated at a density of 1.2×10^4 cells/well into 96-well plates and were cultured overnight at 37° C. and 5% CO2, followed by washing of cells with PBS (Invitrogen cat #14190) and replacing the growth medium with a serum-free and SteCGS-free medium for an additional 24 hours. For PDGF-induced proliferation assay, cells were pre-treated with a compound of General Formula (I) for 1 hour before the addition of PDGF-BB (10 ng/ml; R&D Systems cat #520-BB). Treatments were then continued for additional 20 hours.
Cell proliferation was measured by bromodeoxyuridine (BrdU) incorporation using a BrdU labeling and detection kit (Roche cat #11647229001). BrdU labeling solution was added to cells, followed by incubation for another 4 hours before fixation, addition of nucleases, addition of anti-BrdU-POD and peroxidase substrate. The absorbance at 405 nm (with a reference wavelength at 690 nm) was measured using an ELISA plate reader (Tecan).

For `CCCCCCSc1ccc(C(=O)C=Cc2cc(C)c(OC(C)(C)C(=O)O)c(C)c2)cc1` [Cpd 84 US20070032543, 1-[4-hexylthiophenyl]-3-[3,5-dimethyl-4-carboxydimethylmethyloxyphenyl]prop-2-en-1-one], the “Inhibition of the TGFβ1-induced hHSC activation: Col1α1” value (“Inhibition … Col1α1” for short) [1] was −60% **, the “Inhibition of the TGFβ1-induced hHSC activation: Col4α1” value (“Inhibition … Col4α1” below) [1] was −64% *** and the “Inhibition of the TGFβ1-induced hHSC activation: αSMA” value (shortened to “Inhibition … αSMA”) [1] was −64% ***. For the same compound, the “Inhibition of the PDGF-BB-induced hHSC proliferation: BrdU Incorporation” value (shortened to “Inhibition … BrdU Incorporation”) [2] was −33%.
In the case of `CCCCCCOc1ccc(C(=O)C=Cc2cc(C)c(OC(C)(C)C(=O)O)c(C)c2)cc1` [Cpd 33 WO2004OO5233, 1-[4-hexyloxyphenyl]-3-[3,5-dimethyl-4-carboxydimethylmethyloxyphenyl]prop-2-en-1-one], the “Inhibition … Col1α1” value [1] is reported as −58% *, the “Inhibition … Col4α1” value [1] is reported as −73% *** and the “Inhibition … αSMA” value [1] is reported as −71% ***. For the same compound, the “Inhibition … BrdU Incorporation” value [2] was 35%^.
`Cc1cc(C=CC(=O)c2ccc(Cl)cc2)cc(C)c1OC(C)(C)C(=O)O` [Cpd 17 WO2004OO5233, 1-[4-chlorophenyl]-3-[3,5-dimethyl-4-carboxydimethylmethyloxyphenyl]prop-2-en-1-one] was tested, and the “Inhibition … Col1α1” value [1] was −29%, the “Inhibition … Col4α1” value [1] was −56% *** and the “Inhibition … αSMA” value [1] was −30% ***. For the same compound, the “Inhibition … BrdU Incorporation” value [2] was 6%.
For `CSc1ccc(C(=O)C=Cc2cc(C(C)C)c(OCC(=O)O)c(C(C)C)c2)cc1` [Cpd 74 US20070032543, 1-[4-methylthiophenyl]-3-[3,5-diisopropyl-4-carboxymethyloxyphenyl]prop-2-en-one], the “Inhibition … Col1α1” value [1] was −82% ***, the “Inhibition … Col4α1” value [1] was −85% *** and the “Inhibition … αSMA” value [1] was −97% ***. The “Inhibition … BrdU Incorporation” value [2] was −127% ***.
In the case of `Cc1cc(C=CC(=O)c2ccc(C(F)(F)F)cc2)cc(C)c1OC(C)(C)C(=O)O` [Cpd 58 US20070032543, 1-[4-trifluoromethylphenyl]-3-[3,5-dimethyl-4-carboxydimethylmethyloxyphenyl]prop-2-en-1-one], the “Inhibition … Col1α1” value [1] is reported as 55% *, the “Inhibition … Col4α1” value [1] is reported as −3% and the “Inhibition … αSMA” value [1] is reported as 5%^. The “Inhibition … BrdU Incorporation” value [2] was −5%^.
`CCc1cc(C=CC(=O)c2ccc(C(C)C)cc2)cc(CC)c1OC(C)(C)C(=O)O` [Cpd 56 US20070032543, 1-[4-isopropylphenyl]-3-[3,5-diethyl-4-carboxydimethylmethyloxyphenyl]prop-2-en-1-one] was tested, and the “Inhibition … Col1α1” value [1] was −62% **, the “Inhibition … Col4α1” value [1] was −66% *** and the “Inhibition … αSMA” value [1] was −87% ***. The “Inhibition … BrdU Incorporation” value [2] was −127% ***.
`Cc1cc(C=CC(=O)c2ccc(Oc3ccccc3)cc2)cc(C)c1OC(C)(C)C(=O)O` [Cpd 33 WO2005073184, 1-(4-Phenyloxyphenyl)-3-(4-carboxydimethylmethyloxy-3,5-dimethylphenyl)prop-2-en-1-one] was tested, and the “Inhibition … Col1α1” value [1] was −37%, the “Inhibition … Col4α1” value [1] was 12% ^ and the “Inhibition … αSMA” value [1] was −49% ***. For the same compound, the “Inhibition … BrdU Incorporation” value [2] was −127% ***.
For `Cc1cc(C=CC(=O)c2ccc(OCCC3CCCCC3)cc2)cc(C)c1OC(C)(C)C(=O)O` [Cpd 11 WO2005073184, 1-(4-Cyclohexylethyloxyphenyl)-3-(4-carboxydimethylmethyloxy-3,5-dimethylphenyl)prop-2-en-1-one], the “Inhibition … Col1α1” value [1] was −66% **, the “Inhibition … Col4α1” value [1] was −78% *** and the “Inhibition … αSMA” value [1] was −92% ***. The “Inhibition … BrdU Incorporation” value [2] was −6%^.
In the case of `Cc1cc(C=CC(=O)c2ccc(Br)cc2)cc(C)c1OC(C)(C)C(=O)O` [Cpd 41 WO2004OO5233, 1-[4-bromophenyl]-3-[3,5-dimethyl-4-carboxydimethylmethyloxyphenyl]prop-2-en-1-one], the “Inhibition … Col1α1” value [1] is reported as −28%, the “Inhibition … Col4α1” value [1] is reported as −32% ** and the “Inhibition … αSMA” value [1] is reported as −2%. For the same compound, the “Inhibition … BrdU Incorporation” value [2] was −34%.
With `CSc1ccc(C(=O)C=Cc2cc(C)c(OCC(=O)O)c(C)c2)cc1` [Cpd 72 US20070032543, 1-[4-methylthiophenyl]-3-[3,5-dimethyl-4-carboxymethyloxyphenyl]prop-2-en-1-one] the inhibition at 10 µM ([1]; read-out: Inhibition of the TGFβ1-induced hHSC activation: Col1α1) was 37%, the inhibition at 10 µM ([1]; read-out: Inhibition of the TGFβ1-induced hHSC activation: Col4α1) was 51% and the inhibition at 10 µM ([1]; read-out: Inhibition of the TGFβ1-induced hHSC activation: αSMA) was 74%. The inhibition at 10 µM ([2]; Homo sapiens) was 126%.
With `Cc1cc(C=CC(=O)c2ccc(SC(F)(F)F)cc2)cc(C)c1OC(C)(C)C(=O)O` [Cpd 54 US20070032543, 1-[4-trifluoromethylthiophenyl]3-[3,5-dimethyl-4-carboxydimethymethyoxyphenyl]prop-2-en-1-one] the “Inhibition … Col1α1” value [1] was −27%, the “Inhibition … Col4α1” value [1] was −40% *** and the “Inhibition … αSMA” value [1] was −57% ***. For the same compound, the “Inhibition … BrdU Incorporation” value [2] was 12%^.
In the case of `COc1ccc(C(=O)C=Cc2cc(C)c(OC(C)(C)C(=O)O)c(C)c2)cc1` [Cpd 80 US20070032543, 1-[4-methyoxyphenyl]-3-[3,5-dimethyl-4-carboxydimethylmethyloxyphenyl]prop-2-en-1-one], the “Inhibition … Col1α1” value [1] is reported as −64% **, the “Inhibition … Col4α1” value [1] is reported as −66% *** and the “Inhibition … αSMA” value [1] is reported as −55% ***. The “Inhibition … BrdU Incorporation” value [2] was −136% ***.
